The results in this text go back to patent US10752640B2, “Compounds active towards bromodomains” (NUEVOLUTION A/S, priority 2014, dated 2020).

Structures are written as SMILES.

The target of this test is BRD4 protein (Homo sapiens, UniProt O60885). As to the kind of experiment: FRET assay, half maximal inhibitory concentration (IC50). The format is binding. As to conditions: BRD4 protein 50 nM, Biotin-H4KAc4 peptide 12.5 nM; List of Classification. Put shortly: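 Acetylated histone H4 peptide binding (biotin-H4KAc4, 12.5 nM final) to BRD4 (50 nM final) detected by TR-FRET between streptavidin cryptate (2.4 nM) and GST-XL665 antibody (10 nM) in KF/BSA. Buffer: HEPES pH 7.5, NaCl, CHAPS. Compound dilutions from 50 μM in 12.5% DMSO were preincubated with protein for 30 min. Variable-slope IC50.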
Usually IC50 stands for the concentration at which inhibition is half-maximal. Take `Cc1cc2nc(O)cc(C)c2cc1NC(=O)c1cc(-c2cnn(C)c2)ccc1N1CCOCC1` [Compound-154, N-(2-hydroxy-4,7-dimethyl-6-quinolyl)-5-(1-methylpyrazol-4-yl)-2-morpholino-benzamide]: the IC50 was < 200 nM.
With `Cc1cc2nc(O)cc(C)c2cc1NC(=O)c1cc(-c2c(C)noc2C)ccc1N1CCOCC1` [Compound-155, 5-(3,5-dimethylisoxazol-4-yl)-N-(2-hydroxy-4,7-dimethyl-6-quinolyl)-2-morpholino-benzamide] the figure was < 200 nM; with `Cc1cc(O)nc2c(C)cc(NC(=O)c3cc(-c4ccoc4)ccc3N3CCOCC3)cc12` [Compound-157, 5-(3-furyl)-N-(2-hydroxy-4,8-dimethyl-6-quinolyl)-2-morpholino-benzamide], < 200 nM.
With `COc1cc2nc(O)cc(C)c2cc1NC(=O)c1cc(-c2cnn(C)c2)ccc1N1CCOCC1` [Compound-159, N-(2-hydroxy-7-methoxy-4-methyl-6-quinolyl)-5-(1-methylpyrazol-4-yl)-2-morpholino-benzamide], the IC50 was < 200 nM.
Molecule `COc1cc2nc(O)cc(C)c2cc1NC(=O)c1cc(-c2ccoc2)ccc1N1CCOCC1` [Compound-160, 5-(3-furyl)-N-(2-hydroxy-7-methoxy-4-methyl-6-quinolyl)-2-morpholino-benzamide] yielded an IC50 of 500 to 1000 nM.
On to `COc1cc2nc(O)cc(C)c2cc1NC(=O)c1cc(-c2c(C)noc2C)ccc1N1CCOCC1` [Compound-161, 5-(3,5-dimethylisoxazol-4-yl)-N-(2-hydroxy-7-methoxy-4-methyl-6-quinolyl)-2-morpholino-benzamide], for which the IC50 was < 200 nM.
The value for `Cc1cc2nc(O)cc(C)c2cc1NC(=O)c1cc(-c2cnoc2)ccc1N1CCOCC1` [Compound-163, N-(2-hydroxy-4,7-dimethyl-6-quinolyl)-5-isoxazol-4-yl-2-morpholino-benzamide] was < 200 nM.
With `Cc1cc2[nH]c(=O)cc(C)c2cc1NC(=O)c1cc(C#N)ncc1N1CCOCC1` [Compound-164, 2-cyano-N-(4,7-dimethyl-2-oxo-1H-quinolin-6-yl)-5-morpholino-pyridine-4-carboxamide] the figure was < 200 nM; with `CC(C)c1cc(O)nc2ccc(NC(=O)c3cc(S(=O)(=O)N(C)C)ccc3N3CCCC3)cc12` [Compound-165, 5-(dimethylsulfamoyl)-N-(2-hydroxy-4-isopropyl-6-quinolyl)-2-pyrrolidin-1-yl-benzamide], < 200 nM; with `Cc1cc(O)nc2ccc(NC(=O)c3cc(-c4cnn(C)c4)ccc3N3CCOCC3)cc12` [Compound-166, N-(2-hydroxy-4-methyl-6-quinolyl)-5-(1-methylpyrazol-4-yl)-2-morpholino-benzamide], < 200 nM.
The value for `Cc1cc(O)nc2ccc(NC(=O)c3cc(-c4ccoc4)ccc3N3CCOCC3)cc12` [Compound-167, 5-(3-furyl)-N-(2-hydroxy-4-methyl-6-quinolyl)-2-morpholino-benzamide] was < 200 nM.
Regarding `Cc1cc(O)nc2ccc(NC(=O)c3cc(C(C)O)ccc3N3CCOCC3)cc12` (stereo not drawn) [Compound-168, N-(2-hydroxy-4-methylquinolin-6-yl)-5-(1-hydroxyethyl)-2-morpholinobenzamide], the IC50 was < 200 nM.
The value for `COc1cc(NC(=O)c2cc(-c3cnn(C)c3)cnc2N2CCOCC2)cc2c(C)cc(O)nc12` [Compound-169, N-(2-hydroxy-8-methoxy-4-methylquinolin-6-yl)-5-(1-methyl-1H-pyrazol-4-yl)-2-morpholinonicotinamide] was < 200 nM.
On to `COc1cc2nc(O)cc(C)c2cc1NC(=O)c1cc(-c2cnn(C)c2)cnc1N1CCOCC1` [Compound-170, N-(2-hydroxy-7-methoxy-4-methylquinolin-6-yl)-5-(1-methyl-1H-pyrazol-4-yl)-2-morpholinonicotinamide], for which the IC50 was < 200 nM.
On to `Cc1cc2nc(O)cc(C)c2cc1NC(=O)c1cc(-c2cnn(C)c2)cnc1N1CCOCC1` [Compound-171, N-(2-hydroxy-4,7-dimethylquinolin-6-yl)-5-(1-methyl-1H-pyrazol-4-yl)-2-morpholinonicotinamide], for which the IC50 was < 200 nM.
The value for `Cc1cc(=O)[nH]c2ccc(NC(=O)c3cc(S(=O)(=O)N(C)C)ccc3N3CC[C@@H](F)C3)cc12` [Compound-172, (R)-5-(N,N-dimethylsulfamoyl)-2-(3-fluoropyrrolidin-1-yl)-N-(4-methyl-2-oxo-1,2-dihydroquinolin-6-yl)benzamide] was < 200 nM; that for `Cc1cc(=O)[nH]c2ccc(NC(=O)c3cc(S(=O)(=O)N(C)C)ccc3N3CC[C@H](F)C3)cc12` [Compound-173, (S)-5-(N,N-dimethylsulfamoyl)-2-(3-fluoropyrrolidin-1-yl)-N-(4-methyl-2-oxo-1,2-dihydroquinolin-6-yl)benzamide] was < 200 nM.
`Cc1cc(O)nc2ccc(NC(=O)c3cc(-c4ccoc4)cnc3N3CCOCC3)cc12` [Compound-174, 5-(furan-3-yl)-N-(2-hydroxy-4-methylquinolin-6-yl)-2-morpholinonicotinamide] had an IC50 of 500 to 1000 nM.
The value for `Cc1cc(O)nc2ccc(NC(=O)c3cc(-c4cnn(C)c4)cnc3N3CCOCC3)cc12` [Compound-175, N-(2-hydroxy-4-methylquinolin-6-yl)-5-(1-methyl-1H-pyrazol-4-yl)-2-morpholinonicotinamide] was < 200 nM; that for `Cc1cc(O)nc2ccc(NC(=O)c3cc(-c4cnoc4)cnc3N3CCOCC3)cc12` [Compound-176, N-(2-hydroxy-4-methylquinolin-6-yl)-5-(isoxazol-4-yl)-2-morpholinonicotinamide] was < 200 nM.
The value for `Cc1noc(C)c1-c1cnc(N2CCOCC2)c(C(=O)Nc2ccc3nc(O)cc(C)c3c2)c1` [Compound-177, 5-(3,5-dimethylisoxazol-4-yl)-N-(2-hydroxy-4-methylquinolin-6-yl)-2-morpholinonicotinamide] was < 200 nM; that for `Cc1cc(O)nc2ccc(NC(=O)c3cc(-c4ccoc4)cnc3N3CC4(COC4)C3)cc12` [Compound-178, 5-(furan-3-yl)-N-(2-hydroxy-4-methylquinolin-6-yl)-2-(2-oxa-6-azaspiro[3.3]heptan-6-yl)nicotinamide] was 500 to 1000 nM; that for `Cc1cc(O)nc2c(C)cc(NC(=O)c3cc(-c4ccoc4)cnc3N3CCOCC3)cc12` [Compound-179, 5-(furan-3-yl)-N-(2-hydroxy-4,8-dimethylquinolin-6-yl)-2-morpholinonicotinamide] was < 200 nM.
`Cc1nnc(-c2ccc(N3CCOCC3)c(C(=O)Nc3ccc4nc(O)cc(C)c4c3)c2)o1` [Compound-180, N-(2-hydroxy-4-methylquinolin-6-yl)-5-(5-methyl-1,3,4-oxadiazol-2-yl)-2-morpholinobenzamide]: the IC50 is < 200 nM.
As for `Cc1cc(O)nc2ccc(NC(=O)c3cc(-c4nnn[nH]4)ccc3N3CCOCC3)cc12` [Compound-181, N-(2-hydroxy-4-methylquinolin-6-yl)-2-morpholino-5-(1H-tetrazol-5-yl)benzamide], the IC50 was < 200 nM.
The value for `Cc1cc(O)nc2ccc(NC(=O)c3cc(C(=O)O)ccc3N3CCOCC3)cc12` [Compound-182, 3-(2-hydroxy-4-methylquinolin-6-ylcarbamoyl)-4-morpholinobenzoic acid] was < 200 nM; that for `Cc1cc(O)nc2ccc(NC(=O)c3cc(C#N)cnc3N3CCOCC3)cc12` [Compound-183, 5-cyano-N-(2-hydroxy-4-methylquinolin-6-yl)-2-morpholinonicotinamide] was 500 to 1000 nM.
The value for `Cc1cc(O)nc2ccc(NC(=O)c3cc(Br)cnc3N3CCC(F)C3)cc12` (stereo not drawn) [Compound-184, 5-bromo-2-(3-fluoropyrrolidin-1-yl)-N-(2-hydroxy-4-methylquinolin-6-yl) nicotinamide] was 500 to 1000 nM.
With `Cc1cc(O)nc2ccc(NC(=O)c3cc(N4CCN(C)CC4)cnc3N3CCOCC3)cc12` [Compound-185, N-(2-hydroxy-4-methylquinolin-6-yl)-5-(4-methylpiperazin-1-yl)-2-morpholinonicotinamide] the figure was < 200 nM; with `Cc1cc(O)nc2ccc(NC(=O)c3cc(N4CCOCC4)cnc3N3CCOCC3)cc12` [Compound-186, N-(2-hydroxy-4-methylquinolin-6-yl)-2,5-dimorpholinonicotinamide], < 200 nM; with `Cc1cc2nc(O)cc(C)c2cc1NC(=O)c1cc(-c2c(C)noc2C)cnc1N1CCOCC1` [Compound-188, 5-(3,5-dimethylisoxazol-4-yl)-N-(2-hydroxy-4,7-dimethylquinolin-6-yl)-2-morpholinonicotinamide], < 200 nM.
For `COc1cc(NC(=O)c2cc(-c3ccoc3)cnc2N2CCOCC2)cc2c(C)cc(O)nc12` [Compound-189, 5-(furan-3-yl)-N-(2-hydroxy-8-methoxy-4-methylquinolin-6-yl)-2-morpholinonicotinamide], the IC50 was < 200 nM.
`COc1cc2nc(O)cc(C)c2cc1NC(=O)c1cc(-c2ccoc2)cnc1N1CCOCC1` [Compound-190, 5-(furan-3-yl)-N-(2-hydroxy-7-methoxy-4-methylquinolin-6-yl)-2-morpholinonicotinamide] had an IC50 of 1000 to 10000 nM.
The value for `Cc1cc2nc(O)cc(C)c2cc1NC(=O)c1cc(-c2ccoc2)cnc1N1CCOCC1` [Compound-191, 5-(furan-3-yl)-N-(2-hydroxy-4,7-dimethylquinolin-6-yl)-2-morpholinonicotinamide] was < 200 nM; that for `Cc1cc2nc(O)cc(C)c2cc1NC(=O)c1cc(-c2nnn(C)n2)cnc1N1CCOCC1` [Compound-195, N-(2-hydroxy-4,7-dimethylquinolin-6-yl)-5-(2-methyl-2H-tetrazol-5-yl)-2-morpholinonicotinamide] was < 200 nM.
Regarding `Cc1cc2nc(O)cc(C)c2cc1NC(=O)c1cc(-c2nnnn2C)cnc1N1CCOCC1` [Compound-196, N-(2-hydroxy-4,7-dimethylquinolin-6-yl)-5-(1-methyl-1H-tetrazol-5-yl)-2-morpholinonicotinamide], the IC50 is > 10000 nM.
